Assay results: patent US8785416B2, “Sulphated disaccharides for the treatment of neurodegenerative and/or neurovascular diseases” (Bioiberica, S.A., priority 2009, dated 2014)

What was measured:
[1] = test system: mice (photothrombotic stroke model); test: Experimental photothrombotic stroke model, cortical infarction volume; type: in vivo, mouse; conditions: 10 mg/kg i.p.
Source text: Neuronal death occurs during brain ischemia or stroke; therefore a medicament with a neuroprotective profile can have a therapeutic potential in patients who have suffered from a cerebral infarction or stroke. To explore if the compounds of formula (I) can offer neuroprotection in vivo, the experimental photothrombotic stroke model was used. In the photothrombosis model a focal cerebral infarction is induced in the area of the cortex illuminated by means of a cold light source in mice previously treated with the Rose Bengal stain; this stain is photosensitive and produces free radicals when it is stimulated with light, causing lesions in the surrounding vascular endothelium, which causes platelet aggregation and the formation of thrombi in the microvessels of the cerebral cortex (Non-invasive induction of focal cerebral ischemia in mice by photothrombosis of cortical microvessels: characterization of inflammatory responses, M. Schroeter et al., J Neurosci Methods. 117(1), 43-49. (2002); Melatonin reduces infarction volume in a photothrombotic stroke model in the wild-type but not cyclooxygenase-1-gene knockout mice, L Y. Zhou et al., J Pineal Res. 41(2), 150-156. (2006)).
Adult male Swiss breed mice from Harlan laboratories (Barcelona), with a weight of about 30 g, were used. Once anaesthetised with isoflurane, the mice were placed in a stereotaxic frame, maintaining their rectal temperature at 37±0.5° C. during the entire procedure. Subsequently, the cranium was exposed by means of a dorsomedial incision in the skin and the periosteum was removed. By means of the use of a micromanipulator, a fibre-optic cable was placed to emit a beam of light of 1.9 mm in diameter and 3000° K, connected to a cold light source (Zeiss KL 1500), in 2.0 mm posterior and 3.0 mm lateral to Bregma on the right side. According to the mouse brain atlas (Franklin and Paxinos, 1986), the sensitive-motor cortex, the putamen caudate and the hippocampus are right below this stereotaxic position. Then, the mice were injected with 1 mg of the Rose Bengal photosensitive probe and the brain was illuminated through the intact cranium for 30 minutes. Finally, the skin was sutured and the animals were left in a cage until their recovery under observation.
The animals were sacrificed by decapitation 72 hours after the ischemia. […]
To quantify the cortical cerebral infarction volume, the sections stained with TTC were scanned on both their rostral and caudal part and by means of the image analysis programme ImageJ 1.41 (National Institutes of Health, Bethesda, Md., USA) the area of the ipsi-, contralateral cortex and the cerebral infarction of each of the sections scanned, both in the caudal and rostral part, was quantified. Subsequently, the cerebral infarction volume was calculated. […]

[2] = test system: SH-SY5Y human neuroblastoma cell line; test: Cell toxicity study, LDH release, SH-SY5Y cells incubated 48 hours; type: cell-based; conditions: 100 μM, 48 hours incubation
Procedure: The cell toxicity studies were performed on the SH-SY5Y human neuroblastoma cell line, incubating said cells for 48 hours with the compound under study. The cell viability was assessed by quantifying the release of lactate dehydrogenase (LDH), which is a cytoplasmic enzyme which is released into the extracellular medium when the integrity of the cytoplasmic membrane is lost.

[3] = test system: SH-SY5Y human neuroblastoma cells; test: Neuroprotection against cell death induced by rotenone plus oligomycin-A (oxidative stress), LDH release; type: cell-based
Procedure: An oxidative stress model consists of blocking mitochondrial respiratory chain complexes I and V by means of the combination of rotenone plus oligomycin-A, respectively. As a result of the interruption of the mitochondrial respiratory chain, the cell is unable to continue producing ATP, and the free radicals are generated exceeding the capacity of the cell to neutralize them, and as a result, cell death occurs.
SH-SY5Y human neuroblastoma cells were cultured in a monolayer in 75 cm^2 flasks with a vented stopper. The culture medium used was Dulbecco's Modified Eagle's Medium (DMEM) with a high glucose content ([…]) and supplemented with 10% foetal bovine serum, 2 mM L-Glutamine, 50 IU/mL penicillin and 50 μg/mL streptomycin.
The cell cultures were maintained in an incubator at 37° C. in a humid environment, with 5% CO2 and 95% air. The culture medium was changed twice a week, performing 1:4 passages when the cells reached 70-80% confluence. To perform the passages, the cells were detached by means of their treatment with trypsin-EDTA.
For the cell viability assays, the cells were seeded in sterile 48-well plates at a density of 80,000 cells/well. The experiments were performed 24-48 hours after their seeding.
To evaluate the neuroprotective effect of the compounds, the SH-SY5Y cells were preincubated for 24 hours with the compound under study, and subsequently incubated for 24 hours with the compound under study in the presence of the toxic substances (a combination of 10 μM rotenone and 1 μM oligomycin-A); at the end of this period the cell viability was evaluated by quantifying the release of the LDH enzyme.
The assessment of this enzyme was performed by means of a commercial kit (Cytotoxicity detection kit-LDH; Roche) following the instructions of the company. The samples were colorimetrically analyzed in a plate reader (Labsystems iEMS Reader MF), using the suitable filter at 490-600 nm and obtaining the absorbance values.
The % of cell death was defined as the % of LDH released into the extracellular medium with respect to the total (sum of intra- and extracellular LDH).
Compounds Ic and Ib were studied at four concentrations (0.001, 0.003, 0.01 and 0.03 μM), chondroitin sulphate (supplied by Bioibérica, S.A.) was assayed at two concentrations (10 and 60 μM) and trolox (Sigma Aldrich) was assayed at two concentrations (30 and 300 μM). The experiment also included the baseline (SH-SY5Y cells in the absence of compound and of toxic stimulus) and the control (SH-SY5Y cells cultured in the absence of compound and in the presence of the toxic stimulus rotenone plus oligomycin).

methyl 2-acetamido-2-deoxy-3-O-(β-D-glucopyranosyluronic acid)-4,6-di-O-sulpho-α-D-glucopyranoside, trisodium salt [compound Ic]
cortical infarction volume ([1]; 24 h and 1 h before ischemia and twice a day after, 72 hours, saline 6.1±2.18%, mean and standard deviation): 2.8±1.95% | protection (reduction of cortical infarction volume) ([1]; p<0.001 vs saline): 53% | cell toxicity (release of LDH) [2]: did not show toxicity | maximum statistically significant protection against cell death (% of released LDH) induced by rotenone and oligomycin ([3]; 0.03 μM, 24 h preincubation + 24 h with 10 μM rotenone and 1 μM oligomycin-A): 47% | protective effect compared with chondroitin sulphate and trolox ([3]; Ic, Ib at 0.001-0.03 μM vs chondroitin sulphate 10 and 60 μM, trolox 30 and 300 μM): more effective than chondroitin sulphate and than trolox
